Measured values: US6596772B1, “Phosphate mimics and methods of treatment using phosphatase inhibitors” (Sugen, Inc., priority 1999, dated 2003)
Read-outs that look alike come from different tables or passages of the source.

Legend:
Test in all cases: PTP IC50 assay, fluorescent substrate DiFMUP
Format in all cases: biochemical
[1] = target: T1, PTP SHP2 (Homo sapiens, UniProt Q06124); settings: DiFMUP as substrate, 25° C.; read-out: PTP IC50 SHP2
T1 construct: The catalytic domain was amplified using the following oligonucleotides; made in house; host or cells: Sf-9 insect cells (pFastBac-G2T)
T1 sequence (Q06124 247-517 limits assumed): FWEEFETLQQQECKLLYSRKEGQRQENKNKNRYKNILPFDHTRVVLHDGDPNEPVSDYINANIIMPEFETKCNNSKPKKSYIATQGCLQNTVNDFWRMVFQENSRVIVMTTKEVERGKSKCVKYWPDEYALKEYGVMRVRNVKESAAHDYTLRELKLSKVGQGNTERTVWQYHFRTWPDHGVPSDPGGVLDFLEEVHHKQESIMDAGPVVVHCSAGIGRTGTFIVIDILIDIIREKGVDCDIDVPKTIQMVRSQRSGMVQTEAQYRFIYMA
Description: SHP-2 cDNA was used as described earlier (Vogel W., et al.,1993, Science, 259:1611-4). The catalytic domain was amplified using the following oligonucleotides 5′oligo: 5′-[…]-3′ (SEQ ID NO: 2) 3′oligo: 5′-[…]-3′ (SEQ ID NO: 3) and subsequently subcloned into BamH1-Xba-1 sites. It was then ligated into pfas Bac-G2T BamH1-Xba-1 sites.
(§1) The following in vitro assay procedure is preferred to determine the level of activity and effect of the different compounds of the present invention on one or more of the PTPs. Similar assays can be designed along the same lines for any PTP using techniques well known in the art.
(§2) The catalytic assays described herein are performed in a 96-well format. The general procedure begins with the determination of PTP optimal pH using a three-component buffer system that minimizes ionic strength variations across a wide range of buffer pH. Next, the Michaelis-Menten constant, or Km, is determined for the substrate 6,8-difluoro-4-methylumbelliferyl phosphate (DiFMUP). This Km value is subsequently used as the substrate reaction concentration for compound screening. Finally, the test PTP is exposed to varying concentrations of compound for fifteen minutes and allowed to react with substrate for ten minutes. The results are plotted as percent inhibition versus compound concentration and the IC50 interpolated from the plot.
(§3) All assays were performed using DiFMUP as substrate. The optimum pH and substrate Km was determined for each PTP used.
(§4) PTPase activity was assayed at 25° C. in a 100-μl reaction mixture containing an appropriate concentration of DiFMUP as substrate. The reaction was initiated by addition of the purified PTP and quenched after 10 min by addition of 1% H2O2/100 mM NaCl. The non-enzymatic hydrolysis of the substrate was corrected by measuring the control without the addition of the enzyme. The amount of DiFMU produced was determined from the increase in the fluorescence (360 nm excitation/460 nm emission) over that of background in the absence of PTPase. To determine the kinetic parameter, Km, the initial velocities were measured at various substrate concentrations and the data were fitted to the Michaelis equation where velocity=(Vmax*[S])/(Km+[S]), and [S]=substrate reaction concentration.
(§5) The effect of the compounds on PTP was evaluated at 25° C. using DiFMUP as substrate. PTP was pre-incubated for fifteen minutes with various concentrations of compound. Substrate was then added at a fixed concentration (usually equal to the Km previously calculated). After 10 minutes, the reaction was quenched. The hydrolysis of DiFMUP was followed as described above. The percent inhibition was calculated as follows: Percent Inhibition=[(control signal−compound signal)/control signal]×100%. The IC50 was then determined by interpolation of a percent inhibition versus compound concentration plot.
(§6) Plasmids designed for bacterial GST-PTP fusion protein expression were derived by insertion of PCR-generated human PTP fragments into pGEX vectors (Pharmacia Biotech). Several of these constructs were then used to subclone phosphatases into pFastBac-1 for expression in Sf-9 insect cells. Oligonucleotides used for the initial amplification of PTP genes are as described above. The cDNAs were prepared using the Gilbo BRL superscript preamplification system on RNAs purchased from Clontech.

[2] = target: T2, PTP 1B (Homo sapiens, UniProt P18031)
T2 construct: made in house; host or cells: Sf-9 insect cells (pFastBac-G2T)
T2 sequence (P18031 1-435): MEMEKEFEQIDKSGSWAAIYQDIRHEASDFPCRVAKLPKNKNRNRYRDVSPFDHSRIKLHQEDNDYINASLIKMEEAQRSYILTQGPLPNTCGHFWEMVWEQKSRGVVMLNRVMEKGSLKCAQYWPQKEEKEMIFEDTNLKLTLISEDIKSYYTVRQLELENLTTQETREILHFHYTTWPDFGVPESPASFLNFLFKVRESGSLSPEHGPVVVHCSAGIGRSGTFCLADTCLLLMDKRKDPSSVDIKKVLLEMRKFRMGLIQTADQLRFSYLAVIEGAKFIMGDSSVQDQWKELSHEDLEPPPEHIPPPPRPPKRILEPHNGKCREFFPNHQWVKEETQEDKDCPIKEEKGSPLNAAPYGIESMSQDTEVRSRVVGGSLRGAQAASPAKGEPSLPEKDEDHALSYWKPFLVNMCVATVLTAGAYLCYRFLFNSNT
Description: The PTP1b cDNA was amplified from human placenta single strand cDNA (Clontech RNA) using the following oligonucleotides: 5′oligo: 5′-[…] (SEQ ID NO: 4) 3′oligo: 5′-[…] (SEQ ID NO: 5) It was subsequently ligated into pFasBac G2TBamH1Xba-1 sites.
as §1, §2, §3, §4, §5, §6

[3] = target: T3, PTP EPSILON (Homo sapiens, UniProt P23469)
T3 construct: made in house; host or cells: Sf-9 insect cells (pFastBac-G2T); a pGEX 6P-1 construct also existed
Description: The PTPepsilon cDNA was amplified from human placenta single-strand cDNA (Clontech RNA) using the following oligonucleotides: 5′oligo: 5′-[…]-3′ (SEQ ID NO: 6) 3′oligo: 5′-[…]-3′ (SEQ ID NO: 7) After cloning this PCR product into the Bam HI/Xho I sites of pGEX 6P-1, this phosphatase was subcloned using the same restriction sites in pFastBac-G2T.
as §1, §2, §3, §4, §5, §6

[4] = DiFMUP as substrate, 25° C., read-out: PTP IC50 1B
[5] = DiFMUP as substrate, 25° C., read-out: PTP IC50 Epilson

T3 sequence (P23469 80-393 limits assumed): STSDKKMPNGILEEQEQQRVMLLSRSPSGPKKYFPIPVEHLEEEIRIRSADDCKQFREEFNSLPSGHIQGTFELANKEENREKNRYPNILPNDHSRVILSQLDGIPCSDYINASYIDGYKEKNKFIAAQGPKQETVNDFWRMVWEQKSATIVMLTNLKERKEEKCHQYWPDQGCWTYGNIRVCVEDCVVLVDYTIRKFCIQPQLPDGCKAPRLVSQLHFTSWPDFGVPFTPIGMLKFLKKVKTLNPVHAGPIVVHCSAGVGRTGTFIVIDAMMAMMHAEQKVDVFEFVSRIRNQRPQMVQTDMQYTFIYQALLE

SMILES	IC50 [1]	IC50 [2, 4]	IC50 [3, 5]	IC50 [2]	IC50 [3]
O=C(Cc1ccccc1CC(=O)Nc1ccc(S(=O)(=O)C(F)(F)F)cc1)Nc1ccc(S(=O)(=O)C(F)(F)F)cc1 [Example 32, N-(4-Trifluoromethanesulfonyl-phenyl)-2-{2-[(4-trifluoromethanesulfonyl-phenylcarbamoyl)-methyl]-phenyl}-acetamide]	14.6 µM	7.8 µM	17.4 µM	–	–
O=C(Cc1cccc(CC(=O)Nc2ccc(S(=O)(=O)C(F)(F)F)cc2)c1)Nc1ccc(S(=O)(=O)C(F)(F)F)cc1 [Example 33, N-(4-Trifluoromethanesulfonyl-phenyl)-2-{3-[(4-trifluoromethanesulfonyl-phenylcarbamoyl)-methyl]-phenyl}-acetamide]	2.3 µM	2.3 µM	20.4 µM	–	–
O=C(Cc1ccc(CC(=O)Nc2ccc(S(=O)(=O)C(F)(F)F)cc2)cc1)Nc1ccc(S(=O)(=O)C(F)(F)F)cc1 [Example 34, N-(4-Trifluoromethanesulfonyl-phenyl)-2-{4-[(4-trifluoromethanesulfonyl-phenylcarbamoyl)-methyl]-phenyl}-acetamide]	2.3 µM	3.9 µM	9.1 µM	–	–
CCn1c(-c2ccc(C(=O)OC)cc2)nc2cc(S(=O)(=O)C(F)(F)F)ccc21 [Example 35, 4-(1-Ethyl-5-trifluoromethanesulfonyl-1H-benzoimidazol-2-yl)-benzoic acid methyl ester]	31.6 µM	–	32.5 µM	–	–
CCn1c(-c2ccc(C(=O)O)cc2)nc2cc(S(=O)(=O)C(F)(F)F)ccc21 [Example 36, 4-(1-Ethyl-5-trifluoromethanesulfonyl-1H-benzoimidazol-2-yl)-benzoic acid]	58 µM	> 20 µM	61.2 µM	–	–
CCn1c(-c2ccc(C(=O)Nc3ccncc3)cc2)nc2cc(S(=O)(=O)C(F)(F)F)ccc21 [Example 37, 4-(1-Ethyl-5-trifluoromethanesulfonyl-1H-benzoimidazol-2-yl)-N-pyridin-4-yl-benzamide]	19 µM	> 20 µM	20.5 µM	–	–
CCn1c(-c2ccc(C(=O)Nc3ccc(OC)cc3)cc2)nc2cc(S(=O)(=O)C(F)(F)F)ccc21 [Example 38, 4-(1-Ethyl-5-trifluoromethanesulfonyl-1H-benzoimidazol-2-yl)-N-(4-methoxy-phenyl)-benzamide]	1.1 µM	1.1 µM	5.1 µM	–	–
CCOC(=O)CNC(=O)C(c1ccc(S(=O)(=O)C(F)(F)F)cc1)N(C)C(C)=O (centres unmarked) [Example 47, [2-(Acetyl-methyl-amino)-2-(4-trifluoromethanesulfonyl-phenyl)-acetylamino]-acetic acid ethyl ester]	> 100 µM	–	–	–	–
CCOC(=O)CNC(=O)C(c1ccc(S(=O)(=O)C(F)(F)F)cc1)N(C(=O)c1ccccc1)C1CCCCC1 (centres unmarked) [Example 48, [2-(Benzoyl-cyclohexyl-amino)-2-(4-trifluoromethanesulfonyl-phenyl)-acetylamino]-acetic acid ethyl ester]	37.7 µM	22.7 µM	–	–	–
CCOC(=O)c1cc(Oc2ccc(S(=O)(=O)C(F)(F)F)cc2[N+](=O)[O-])c(C(=O)OCC)cc1Oc1ccc(S(=O)(=O)C(F)(F)F)cc1[N+](=O)[O-] [Example 54, 2,5-Bis-(2-nitro-4-trifluoromethanesulfonyl-phenoxy)-terephthalic acid diethyl ester]	0.7 µM	> 20 µM	–	–	–
O=[N+]([O-])c1cc(S(=O)(=O)C(F)(F)F)ccc1OCC(CN1CCCCC1)Oc1ccc(S(=O)(=O)C(F)(F)F)cc1[N+](=O)[O-] (centres unmarked) [Example 55, 1-[2,3-Bis-(2-nitro-4-trifluoromethanesulfonyl-phenoxy)-propyl]-piperidine]	3.3 µM	–	2.4 µM	–	–
O=[N+]([O-])c1cc(S(=O)(=O)C(F)(F)F)ccc1OCC(CN1CCOCC1)Oc1ccc(S(=O)(=O)C(F)(F)F)cc1[N+](=O)[O-] (centres unmarked) [Example 56, 4-[2,3-Bis-(2-nitro-4-trifluoromethanesulfonyl-phenoxy)-propyl]-morpholine]	2.9 µM	4.8 µM	–	–	–
O=[N+]([O-])c1ccccc1NCC(COc1ccc(S(=O)(=O)C(F)(F)F)cc1[N+](=O)[O-])Oc1ccc(S(=O)(=O)C(F)(F)F)cc1[N+](=O)[O-] (centres unmarked) [Example 57, [2,3-Bis-(2-nitro-4-trifluoromethanesulfonyl-phenoxy)-propyl]-(2-nitro-phenyl)-amine]	–	–	–	> 20 µM	0.6 µM
NS(=O)(=O)c1ccc(NCC(O)COc2ccc(S(=O)(=O)C(F)(F)F)cc2[N+](=O)[O-])cc1 (centres unmarked) [Example 61, 4-[2-Hydroxy-3-(2-nitro-4-trifluoromethanesulfonyl-phenoxy)-propylamino]-benzenesulfonamide]	1.7 µM	–	7.4 µM	–	–
NS(=O)(=O)c1ccc(NCC(COc2ccc(S(=O)(=O)C(F)(F)F)cc2[N+](=O)[O-])Oc2ccc(S(=O)(=O)C(F)(F)F)cc2[N+](=O)[O-])cc1 (centres unmarked) [Example 62, 4-[2,3-Bis-(2-nitro-4-trifluoromethanesulfonyl-phenoxy)-propylamino]-benzenesulfonamide]	2.3 µM	–	5.7 µM	–	–
O=S(=O)(c1ccc(-c2ncc(-c3ccc4ccccc4c3)o2)cc1)C(F)F [Example 64, 2-[4-(Difluoro-methanesulfonyl)-phenyl]-5-naphthalen-2-yl-oxazole]	5.9 µM	5.4 µM	–	–	–
Cc1ccc(Nc2ccc(S(=O)(=O)C(F)(F)C(F)F)cc2[N+](=O)[O-])cc1 [Example 65, [2-Nitro-4-(1,1,2,2-tetrafluoro-ethanesulfonyl)-phenyl]-p-tolyl-amine]	13.1 µM	11.5 µM	–	–	–
Cc1cc2cc(NS(=O)(=O)C(F)(F)F)ccc2n1CC(=O)Nc1ccc(C(=O)O)cc1 [Example 85, 4-[2-(2-Methyl-5-trifluoromethanesulfonylamino-indol-1-yl)-acetylamino]-benzoic acid]	–	17.4 µM	> 20 µM	–	–
